The source of these data is US20050226858A1, “Compositions containing reduced coenzyme Q10 and carotenoid” (KANEKA CORPORATION, priority 2004, published 2005).

The nature of assay [1]: Antioxidative activity, method 2: DPPH spectrometry. Particulars: ethanol solutions, 25 μM of each substance, after 20 minutes, calibrated with catechin.
Protocol: Since the TBARS is red, method 1 cannot accurately determine absorbance of some carotenoids. Therefore, spectrometry using 1,1-dipehnyl-2-picrylhydrazyl (DPPH) was also conducted (K. Shinohara and T. Suzuki, Shokuhin-Kinou-Kenkyuho (Methods for Functional Food Analysis), 2000, 218).
In method 2, 12 ml of a 200 mM MES buffer (pH 6.0) was added to 12 ml of a 400 μM DPPH ethanol solution. Then, 12 ml ethanol was added to prepare a mixture. An ethanol solution (0.6 ml) containing an antioxidative substance was added to the mixture (0.9 ml). After 20 minutes, the absorbance of the mixture was measured at 510 nm. In this measuring system, the absorbance decreases as the antioxidative activity of the antioxidative substance increases. The antioxidative activity of the antioxidative substance was quantitatively determined using a calibration curve prepared with catechin. Namely, the minimum absorbance when DPPH radicals were completely consumed with an excess amount of catechin corresponded to 100% antioxidative activity. The maximum absorbance when DPPH radicals were not consumed at all corresponded to 0% antioxidative activity. The calibration curve was drawn from these 2 points and the antioxidative activity (%) was determined from the absorbance of the antioxidative substance.
According to the above-mentioned methods, the antioxidative activity (A) in combination of reduced coenzyme Q10 and a carotenoid, the antioxidative activity (B) of reduced coenzyme Q10 used alone, and the antioxidative activity (C) of the carotenoid used alone are measured. The antioxidative activity in combination of reduced coenzyme Q10 and the carotenoid is compared with the sum (additive effect) of the antioxidative activity of reduced coenzyme Q10 alone and the antioxidative activity of the carotenoid alone in order to investigate the synergistic effect.
In the present invention, both the following two formulae were used to correctly determine if the use in combination of reduced coenzyme Q10 and a carotenoid show synergistic effect. […]
For assay [2], the system named is thiobarbituric acid-reactive substances (TBARS) in rat brain homogenate. The experiment in a line: Antioxidative activity, method 1: TBARS level in oxidised rat brain homogenate. It counts as biochemical. As to conditions: ethanol solutions, 100 mM of each substance, 37° C., 27 hours.
Protocol: In method 1 of measuring antioxidative activity, a level of thiobarbituric acid-reactive substances (TBARS) generated by an oxidative reaction was determined (Buege J. A. and Aust S. D., Methods Enzymol., 1978, 52: 302).
In this method, rat brain was homogenized in about 2.5 times by weight of saline to prepare a brain homogenate. The brain homogenate (80 μl), an ethanol solution (30 μl) containing antioxidative substance, Eagle's MEM medium (120 μl) , CuSO4 (240 μM), and FeCl3 (240 μM) were mixed and the mixture was maintained at 37° C. for 27 hours. Then, a 20% trichloroacetic acid (TCA) solution (0.9 ml) and a 0.67% thiobarbituric acid (TBA) solution (0.9 ml) were added and the resulting mixture was heated at 100° C. for 30 minutes. After cooling by water, the mixture was centrifuged to separate a supernatant. The absorbance of the supernatant was measured at 532 nm. […] The antioxidative activity (%) of an antioxidative substance was determined by the ratio of a decrease of the TBARS content in the presence of an antioxidative substance to the TBARS content in the absence of an antioxidative substance.
According to the above-mentioned methods, the antioxidative activity (A) in combination of reduced coenzyme Q10 and a carotenoid, the antioxidative activity (B) of reduced coenzyme Q10 used alone, and the antioxidative activity (C) of the carotenoid used alone are measured. […]

Each structure is given as a SMILES string.

Turning to `CC1=C(/C=C/C(C)=C/C=C/C(C)=C/C=C/C=C(C)/C=C/C=C(C)/C=C/C2=C(C)CCCC2(C)C)C(C)(C)CCC1` [β-Carotene, β-carotene], in assay [1], the “Antioxidative Activity (%) (Inhibition Ratio of Oxidation)” value amounted to 8.8%.
As to `COc1c(O)c(C)c(C/C=C(\C)CC/C=C(\C)CC/C=C(\C)CC/C=C(\C)CC/C=C(\C)CC/C=C(\C)CC/C=C(\C)CC/C=C(\C)CC/C=C(\C)CCC=C(C)C)c(O)c1OC` [Reduced coenzyme Q10, reduced coenzyme Q10], the “Antioxidative Activity (%) (Inhibition Ratio of Oxidation)” value is on record as 10.9% in assay [2] and 10.3% in assay [1].
On to `CC1=C(/C=C/C(C)=C/C=C/C(C)=C/C=C/C=C(C)/C=C/C=C(C)/C=C/C2=C(C)C(=O)[C@@H](O)CC2(C)C)C(C)(C)C[C@H](O)C1=O` [Astaxanthin, astaxanthin], for which the “Antioxidative Activity (%) (Inhibition Ratio of Oxidation)” value in assay [2] was determined as 21.6%.
For `CC(C)=CCC/C(C)=C/C=C/C(C)=C/C=C/C(C)=C/C=C/C=C(C)/C=C/C=C(C)/C=C/C=C(\C)CCC=C(C)C` [Lycopene, lycopene], the “Antioxidative Activity (%) (Inhibition Ratio of Oxidation)” value in assay [1] stood at 0.9%.
